Where “and” joins values, the source holds several entries; their conditions need not be identical. Equal values may be shown once. HELM strings list units from the 5' end as sugar, base in round brackets, then linkage (d deoxyribose, r ribose, m 2'-O-methyl, p phosphodiester). Strings are as the collection lists them, not checked against the first reports. ss, as = sense and antisense strand; [lna] = locked nucleic acid (LNA); [hna] = hexitol nucleic acid; [s4r] = 4'-thioribose; [fl2r] = 2'-fluoro
Note: test system not given here.

For the data set the following is noted: siRNA.
As to “RNA1{r(C)p.r(U)p.r(U)p.r(A)p.r(C)p.r(G)p.r(C)p.r(U)p.r(G)p.r(A)p.r(G)p.r(U)p.r(A)p.r(C)p.r(U)p.r(U)p.r(C)p.r(G)p.r(A)p.r(T)p.r(T)}|RNA2{r(T)p.r(C)p.r(G)p.r(A)p.r(A)p.r(G)p.r(U)p.r(A)p.r(C)p.r(U)p.r(C)p.[lna](A)p.r(G)p.r(C)p.r(G)p.r(U)p.r(A)p.r(A)p.r(G)p.[lna](T)p.[lna](T)}$$$RNA1{StrandType:ss}|RNA2{StrandType:as}$”, the target mRNA knockdown was 70% and 94%.

In turn, “RNA1{r(U)p.r(U)p.r(U)p.m(G)p.r(A)p.r(U)p.m(C)p.r(A)p.r(G)p.r(C)p.r(G)p.r(G)p.r(A)p.r(G)p.r(A)p.r(C)p.r(U)p.r(C)p.r(G)p.r(T)p.r(T)}|RNA2{r(C)p.r(G)p.r(A)p.r(G)p.r(U)p.r(C)p.r(U)p.r(C)p.r(C)p.r(G)p.r(C)p.r(U)p.r(G)p.r(A)p.r(U)p.r(C)p.r(A)p.r(A)p.r(A)p.r(T)p.r(T)}$$$RNA1{StrandType:ss}|RNA2{StrandType:as}$” came in with a target mRNA knockdown of 82%.

For the substance “RNA1{r(A)p.r(A)p.r(A)p.r(C)p.r(C)p.r(C)p.r(C)p.[fl2r](U)p.r(A)p.r(G)p.r(A)p.r(G)p.r(G)p.[fl2r](G)p.r(C)p.r(A)p.r(A)p.r(G)p.r(U)p.r(T)p.r(T)}|RNA2{r(A)p.r(C)p.r(U)p.[fl2r](U)p.r(G)p.r(C)p.r(C)p.r(C)p.r(U)p.r(C)p.[fl2r](U)p.r(A)p.r(G)p.r(G)p.r(G)p.r(G)p.r(U)p.r(U)p.r(U)p.r(T)p.r(T)}$$$RNA1{StrandType:ss}|RNA2{StrandType:as}$”, the target mRNA knockdown amounted to 82%.

The substance “RNA1{r(C)p.r(G)p.r(U)p.r(A)p.r(C)p.r(G)p.r(C)p.r(G)p.r(G)p.r(A)p.r(A)p.r(U)p.r(A)p.r(C)p.r(U)p.[s4r](U)p.[s4r](C)p.[s4r](G)p.[s4r](A)p.r(T)p.r(T)}|RNA2{r(U)p.r(C)p.r(G)p.r(A)p.r(A)p.r(G)p.r(U)p.r(A)p.r(U)p.r(U)p.r(C)p.r(C)p.r(G)p.r(C)p.r(G)p.r(U)p.r(A)p.r(C)p.r(G)p.r(T)p.r(T)}$$$RNA1{StrandType:ss}|RNA2{StrandType:as}$” had a target mRNA knockdown of 94.3%.

For “RNA1{m(A)p.r(G)p.m(U)p.r(U)p.m(A)p.r(A)p.m(C)p.r(C)p.m(C)p.r(G)p.m(G)p.r(G)p.m(A)p.r(C)p.m(U)p.r(U)p.m(G)p.r(G)p.m(A)p.r(T)p.r(T)}|RNA2{r(U)p.r(C)p.r(C)p.r(A)p.r(A)p.m(G)p.r(U)p.r(C)p.r(C)p.r(C)p.m(G)p.m(G)p.m(G)p.r(U)p.r(U)p.r(A)p.r(A)p.r(C)p.r(U)p.r(T)p.r(T)}$$$RNA1{StrandType:ss}|RNA2{StrandType:as}$”, the target mRNA knockdown was found to be 45%.

As for “RNA1{r(G)p.r(A)p.r(C)p.r(G)p.[hna](U)p.r(A)p.r(A)p.[hna](A)p.r(C)p.r(G)p.[hna](G)p.r(C)p.r(C)p.[hna](A)p.r(C)p.r(A)p.r(A)p.r(G)p.r(U)p.[hna](U)p.d(T)}|RNA2{r(A)p.r(C)p.r(U)p.r(U)p.r(G)p.r(U)p.r(G)p.r(G)p.r(C)p.r(C)p.r(G)p.r(U)p.r(U)p.r(U)p.r(A)p.r(C)p.r(G)p.[hna](U)p.[hna](C)p.[hna](G)p.d(T)}$$$RNA1{StrandType:ss}|RNA2{StrandType:as}$”, the target mRNA knockdown came to 48.7%.

“RNA1{[hna](G)p.[hna](A)p.[hna](C)p.r(G)p.r(U)p.r(A)p.r(A)p.r(A)p.r(C)p.r(G)p.r(G)p.r(C)p.r(C)p.r(A)p.r(C)p.r(A)p.r(A)p.[hna](G)p.[hna](U)p.r(U)p.d(T)}|RNA2{r(A)p.r(C)p.r(U)p.r(U)p.r(G)p.r(U)p.r(G)p.r(G)p.r(C)p.r(C)p.r(G)p.r(U)p.r(U)p.r(U)p.r(A)p.r(C)p.r(G)p.r(U)p.[lna](C)p.[lna](G)p.r(C)}$$$RNA1{StrandType:ss}|RNA2{StrandType:as}$” had a target mRNA knockdown of 84.7%.

With “RNA1{m(A)p.r(U)p.m(A)p.r(C)p.m(U)p.r(U)p.m(G)p.r(G)p.m(C)p.r(G)p.m(G)p.r(G)p.m(C)p.r(U)p.m(C)p.r(U)p.m(U)p.r(U)p.m(C)p.r(T)p.r(T)}|RNA2{m(G)p.r(A)p.r(A)p.r(A)p.m(G)p.r(A)p.m(G)p.r(C)p.r(C)p.r(C)p.m(G)p.r(C)p.r(C)p.r(A)p.r(A)p.m(G)p.r(U)p.r(A)p.r(U)p.r(T)p.r(T)}$$$RNA1{StrandType:ss}|RNA2{StrandType:as}$”, the target mRNA knockdown stood at 25%.

The substance “RNA1{[fl2r](C)p.r(A)p.r(G)p.[fl2r](C)p.r(A)p.r(A)p.r(A)p.[fl2r](C)p.[fl2r](C)p.r(A)p.[fl2r](C)p.r(G)p.r(A)p.[fl2r](U)p.[fl2r](C)p.r(A)p.r(A)p.[fl2r](U)p.r(A)p.r(T)p.r(T)}|RNA2{[fl2r](U)p.r(A)p.[fl2r](U)p.[fl2r](U)p.r(G)p.r(A)p.[fl2r](U)p.[fl2r](C)p.r(G)p.[fl2r](U)p.r(G)p.r(G)p.[fl2r](U)p.[fl2r](U)p.[fl2r](U)p.r(G)p.[fl2r](C)p.[fl2r](U)p.r(G)p.r(T)p.r(T)}$$$RNA1{StrandType:ss}|RNA2{StrandType:as}$” returned a target mRNA knockdown of 71%.

As to “RNA1{[fl2r](G)p.r(U)p.[fl2r](U)p.r(C)p.[fl2r](A)p.r(C)p.[fl2r](G)p.r(U)p.[fl2r](C)p.r(C)p.[fl2r](U)p.r(A)p.[fl2r](C)p.r(C)p.[fl2r](C)p.r(C)p.[fl2r](U)p.r(U)p.[fl2r](U)p.r(T)p.r(T)}|RNA2{r(A)p.r(A)p.r(A)p.r(G)p.r(G)p.r(G)p.r(G)p.r(U)p.r(A)p.r(G)p.r(G)p.r(A)p.[fl2r](C)p.r(G)p.r(U)p.r(G)p.r(A)p.r(A)p.[fl2r](C)p.r(T)p.r(T)}$$$RNA1{StrandType:ss}|RNA2{StrandType:as}$”, the target mRNA knockdown came to 23%.

Regarding “RNA1{r(A)p.[fl2r](A)p.r(G)p.r(G)p.r(C)p.[fl2r](C)p.r(A)p.r(A)p.r(C)p.r(C)p.r(G)p.r(A)p.[fl2r](U)p.r(A)p.r(C)p.r(U)p.r(U)p.r(C)p.r(U)p.r(T)p.r(T)}|RNA2{r(A)p.r(G)p.r(A)p.r(A)p.r(G)p.[fl2r](U)p.r(A)p.r(U)p.r(C)p.r(G)p.r(G)p.r(U)p.[fl2r](U)p.r(G)p.r(G)p.r(C)p.r(C)p.r(U)p.r(U)p.r(T)p.r(T)}$$$RNA1{StrandType:ss}|RNA2{StrandType:as}$”, the target mRNA knockdown is 68%.

Substance “RNA1{m(G)p.r(U)p.m(A)p.r(U)p.m(C)p.r(C)p.m(G)p.r(A)p.m(A)p.r(G)p.m(A)p.r(C)p.m(G)p.r(A)p.m(A)p.r(G)p.m(C)p.r(U)p.m(A)p.r(T)p.r(T)}|RNA2{r(U)p.m(A)p.r(G)p.r(C)p.r(U)p.r(U)p.r(C)p.r(G)p.r(U)p.r(C)p.r(U)p.r(U)p.r(C)p.r(G)p.r(G)p.m(A)p.r(U)p.m(A)p.r(C)p.r(T)p.r(T)}$$$RNA1{StrandType:ss}|RNA2{StrandType:as}$” came in with a target mRNA knockdown of 30%.

With “RNA1{r(C)p.r(C)p.r(U)p.r(C)p.r(G)p.r(G)p.r(A)p.r(G)p.r(A)p.r(G)p.r(U)p.r(U)p.r(C)p.m(U)p.r(A)p.r(C)p.r(U)p.r(C)p.r(U)p.r(T)p.r(T)}|RNA2{r(A)p.r(G)p.r(A)p.r(G)p.m(U)p.r(A)p.r(G)p.r(A)p.r(A)p.r(C)p.r(U)p.r(C)p.r(U)p.r(C)p.r(C)p.r(G)p.r(A)p.r(G)p.r(G)p.r(T)p.r(T)}$$$RNA1{StrandType:ss}|RNA2{StrandType:as}$”, the target mRNA knockdown is 85%.

As to “RNA1{m(A)p.r(C)p.m(C)p.r(G)p.m(A)p.r(C)p.m(G)p.r(A)p.m(U)p.r(U)p.m(C)p.r(U)p.m(U)p.r(C)p.m(U)p.r(A)p.m(C)p.r(U)p.m(C)p.r(T)p.r(T)}|RNA2{r(G)p.r(A)p.r(G)p.r(U)p.r(A)p.r(G)p.r(A)p.r(A)p.r(G)p.r(A)p.r(A)p.r(U)p.r(C)p.r(G)p.r(U)p.r(C)p.r(G)p.r(G)p.r(U)p.r(T)p.r(T)}$$$RNA1{StrandType:ss}|RNA2{StrandType:as}$”, the target mRNA knockdown is 42%.

“RNA1{r(C)p.r(U)p.r(U)p.r(A)p.r(C)p.r(G)p.r(C)p.r(U)p.r(G)p.r(A)p.r(G)p.r(U)p.r(A)p.r(C)p.r(U)p.r(U)p.r(C)p.r(G)p.r(A)p.d(T)p.d(T)}|RNA2{[lna](T)p.r(C)p.r(G)p.r(A)p.r(A)p.r(G)p.r(U)p.r(A)p.r(C)p.r(U)p.r(C)p.r(A)p.r(G)p.r(C)p.r(G)p.r(U)p.r(A)p.r(A)p.r(G)p.[lna](T)p.[lna](T)}$$$RNA1{StrandType:ss}|RNA2{StrandType:as}$” yielded a target mRNA knockdown of 55%.

“RNA1{m(A)p.m(A)p.m(G)p.m(G)p.m(A)p.m(G)p.m(A)p.m(U)p.m(C)p.m(A)p.m(A)p.m(C)p.m(A)p.m(U)p.m(U)p.m(U)p.m(U)p.m(C)p.m(A)p.r(T)p.r(T)}|RNA2{[fl2r](U)p.r(G)p.r(A)p.r(A)p.r(A)p.r(A)p.[fl2r](U)p.r(G)p.r(U)p.r(U)p.r(G)p.r(A)p.[fl2r](U)p.[fl2r](C)p.[fl2r](U)p.[fl2r](C)p.[fl2r](C)p.[fl2r](U)p.[fl2r](U)p.r(T)p.r(T)}$$$RNA1{StrandType:ss}|RNA2{StrandType:as}$” registered a target mRNA knockdown of 71%.

In turn, “RNA1{m(A)p.r(A)p.m(C)p.r(A)p.m(G)p.r(C)p.m(C)p.r(U)p.m(U)p.r(A)p.m(C)p.r(C)p.m(C)p.r(C)p.m(G)p.r(A)p.m(U)p.r(U)p.m(C)p.r(T)p.r(T)}|RNA2{r(G)p.m(A)p.m(A)p.r(U)p.r(C)p.r(G)p.r(G)p.r(G)p.r(G)p.r(U)p.m(A)p.m(A)p.r(G)p.r(G)p.r(C)p.r(U)p.r(G)p.r(U)p.r(U)p.r(T)p.r(T)}$$$RNA1{StrandType:ss}|RNA2{StrandType:as}$” displayed a target mRNA knockdown of 32%.

Turning to “RNA1{r(G)p.r(U)p.r(C)p.m(U)p.r(A)p.m(U)p.r(G)p.r(C)p.m(C)p.r(A)p.r(A)p.r(G)p.r(A)p.r(A)p.r(G)p.r(G)p.r(G)p.r(A)p.r(G)p.r(T)p.r(T)}|RNA2{r(C)p.r(U)p.r(C)p.r(C)p.r(C)p.r(U)p.r(U)p.r(C)p.r(U)p.m(U)p.r(G)p.r(G)p.m(C)p.r(A)p.m(U)p.r(A)p.r(G)p.r(A)p.r(C)p.r(T)p.r(T)}$$$RNA1{StrandType:ss}|RNA2{StrandType:as}$”, the target mRNA knockdown is 72%.

Consider “RNA1{r(G)p.r(A)p.m(C)p.r(A)p.r(A)p.r(G)p.r(G)p.r(G)p.r(A)p.r(A)p.r(G)p.r(G)p.r(U)p.m(U)p.r(A)p.r(G)p.r(C)p.r(C)p.r(U)p.r(T)p.r(T)}|RNA2{r(A)p.r(G)p.r(G)p.r(C)p.m(U)p.r(A)p.r(A)p.r(C)p.r(C)p.r(U)p.r(U)p.r(C)p.r(C)p.r(C)p.r(U)p.m(U)p.r(G)p.r(U)p.r(C)p.r(T)p.r(T)}$$$RNA1{StrandType:ss}|RNA2{StrandType:as}$”, for which the target mRNA knockdown amounted to 68%.

(Values after the OligoGym collection.)
